Results on five compounds are retold here after patent US10414811B2, “Protease-resistant lipidated GLP-1 analogs” (MEDIMMUNE LIMITED, priority 2015, dated 2019).

Read-outs that look alike come from different tables or passages of the source. Numbered stars: 1 amine (or outer) side, 2 acyl side, 3 side chain; on linkers, the order of the positions; unused ones are H or OH. Square brackets hold non-standard residues; d marks the D form. Side chains are listed from the residue outwards. Peptide text beside a SMILES is read from it. * marks the point of attachment. C18 diacid = O=C(O)CCCCCCCCCCCCCCCCC(=O)*; γGlu = O=C(O)[C@H](CCC(=O)[*:2])N[*:1]; Palmitoyl = CCCCCCCCCCCCCCCC(=O)*; αMeF = C[C@](N)(Cc1ccccc1)C(=O)O; αMeK = C[C@](N)(CCCCN)C(=O)O; αMeS = C[C@](N)(CO)C(=O)O; AEEA = NCCOCCOCC(=O)O; Aib = CC(C)(N)C(=O)O

Format in all cases: cell-based
The target of experiment [1] is T1, human glucose-dependent insulinotropic peptide receptor (GIPR) (Homo sapiens, UniProt P48546).
T1 construct: expressed in transfected cells
T1 sequence (P48546 22-466): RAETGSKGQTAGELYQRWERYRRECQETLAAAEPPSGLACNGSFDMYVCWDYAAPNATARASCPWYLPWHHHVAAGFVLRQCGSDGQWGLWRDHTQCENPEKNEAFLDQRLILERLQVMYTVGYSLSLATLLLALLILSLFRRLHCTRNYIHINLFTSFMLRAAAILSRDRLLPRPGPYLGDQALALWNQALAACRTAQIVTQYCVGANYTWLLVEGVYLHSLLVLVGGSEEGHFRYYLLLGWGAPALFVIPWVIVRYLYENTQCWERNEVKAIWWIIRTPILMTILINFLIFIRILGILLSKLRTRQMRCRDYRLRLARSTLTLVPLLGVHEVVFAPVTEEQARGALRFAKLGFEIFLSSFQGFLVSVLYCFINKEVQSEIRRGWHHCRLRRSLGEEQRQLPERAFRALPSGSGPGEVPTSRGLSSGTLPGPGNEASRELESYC
As to the kind of experiment: cAMP assay, human GIPR cells. Particulars: cAMP assay. The gist of the method: (§1)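 Peptide-stimulated cAMP measured by two-step HTRF after a 30 min room-temperature incubation with receptor-expressing cells (hGLP-1R, hGIPR at 1×10^5 cells/ml; hGCGR at 2×10^5 cells/ml). Duplicate dilutions; EC50 from 4-parameter logistic fit of % Delta F.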

Experiment [2] deals with T2, GLP-1R (INS1e assay) (Rattus norvegicus, UniProt P32301).
T2 construct: endogenous in cells; host or cells: INS-1E cells
T2 sequence (P32301 22-463): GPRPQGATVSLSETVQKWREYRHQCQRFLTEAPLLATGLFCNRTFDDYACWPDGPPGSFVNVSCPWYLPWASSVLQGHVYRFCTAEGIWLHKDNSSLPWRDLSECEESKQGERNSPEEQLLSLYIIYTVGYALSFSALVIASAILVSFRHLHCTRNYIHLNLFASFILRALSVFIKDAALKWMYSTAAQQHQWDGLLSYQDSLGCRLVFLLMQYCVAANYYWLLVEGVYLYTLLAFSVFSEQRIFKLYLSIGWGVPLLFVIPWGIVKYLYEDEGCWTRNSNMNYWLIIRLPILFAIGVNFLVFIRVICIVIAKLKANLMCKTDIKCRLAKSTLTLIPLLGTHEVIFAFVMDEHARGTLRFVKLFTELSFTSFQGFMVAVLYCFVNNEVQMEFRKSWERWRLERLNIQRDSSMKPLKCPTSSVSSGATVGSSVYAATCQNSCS
Description: INS1e assay, cAMP activity at GLP-1R. Particulars: mono-lipidated peptides. The gist of the method: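 cAMP was quantified by two-step HTRF, using anti-cAMP cryptate donor and cAMP-d2 acceptor, each diluted 1/20 in conjugate and lysis buffer. EC50 values of the synthetic peptides were derived from the cAMP readout.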

Experiment [3] concerns the target T3, human GLP-1 receptor (GLP-1R) (Homo sapiens, UniProt P43220).
T3 construct: expressed in transfected cells
Description: cAMP assay, human GLP-1R cells. An outline of the steps: as §1

Experiment [4] has as its target T4, human glucagon receptor (GCGR) (Homo sapiens, UniProt P47871).
T4 construct: expressed in transfected cells
Description: cAMP assay, human GCGR cells. Particulars: cAMP assay. An outline of the steps: as §1
Background: Changes in cAMP serve as a functional read-out for many G protein-coupled receptors.

Where [5] appears, read: first determination (n1), read-out: Primary assay EC50 GIP-R (n1).
[6] abbreviates: second determination (n2), read-out: Primary assay EC50 GIP-R (n2).
[7] abbreviates: mean of n1 and n2, read-out: INS1e assay EC50 Mean pM GLP-1R.
Where [8] appears, read: replicate n1, read-out: INS1e assay EC50 GLP-1R n1.
[9] abbreviates: replicate n2, read-out: INS1e assay EC50 GLP-1R n2.
[10] abbreviates: cAMP assay, first determination (n1), read-out: Primary assay EC50 GLP-1R n1.
[11] abbreviates: cAMP assay, second determination (n2), read-out: Primary assay EC50 GLP-1R n2.
Setting [12] is: mean of n1 and n2, read-out: Mean pM GLP-1R.
The mark [13] stands for this setting: first determination (n1), read-out: Primary assay EC50 Gluc-R (n1).
The mark [14] stands for this setting: second determination (n2), read-out: Primary assay EC50 Gluc-R (n2).

T3 sequence (P43220 24-463): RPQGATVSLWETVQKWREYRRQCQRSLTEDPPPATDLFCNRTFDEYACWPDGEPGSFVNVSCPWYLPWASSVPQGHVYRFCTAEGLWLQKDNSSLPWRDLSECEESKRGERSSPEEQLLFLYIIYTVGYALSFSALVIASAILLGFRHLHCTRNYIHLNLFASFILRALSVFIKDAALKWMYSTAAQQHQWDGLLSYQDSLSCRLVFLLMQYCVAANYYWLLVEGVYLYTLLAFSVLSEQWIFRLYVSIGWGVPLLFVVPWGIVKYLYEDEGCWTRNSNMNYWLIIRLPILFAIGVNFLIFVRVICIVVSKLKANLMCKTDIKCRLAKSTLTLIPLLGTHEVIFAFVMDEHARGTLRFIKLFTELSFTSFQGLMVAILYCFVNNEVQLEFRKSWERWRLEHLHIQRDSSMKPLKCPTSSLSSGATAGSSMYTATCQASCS
T4 sequence (P47871 26-477): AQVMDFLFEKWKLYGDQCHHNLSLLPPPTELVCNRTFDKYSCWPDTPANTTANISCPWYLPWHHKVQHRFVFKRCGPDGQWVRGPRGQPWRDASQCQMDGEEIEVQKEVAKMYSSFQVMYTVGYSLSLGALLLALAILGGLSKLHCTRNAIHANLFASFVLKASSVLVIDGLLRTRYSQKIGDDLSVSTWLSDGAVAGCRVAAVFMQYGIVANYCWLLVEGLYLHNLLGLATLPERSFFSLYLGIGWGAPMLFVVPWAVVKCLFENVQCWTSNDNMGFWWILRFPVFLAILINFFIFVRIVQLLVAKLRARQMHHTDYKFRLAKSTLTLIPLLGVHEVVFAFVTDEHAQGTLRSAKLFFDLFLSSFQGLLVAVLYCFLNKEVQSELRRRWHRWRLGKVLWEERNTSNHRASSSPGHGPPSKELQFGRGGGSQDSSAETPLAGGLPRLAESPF

With `CCCCCCCCCCCCCCCC(=O)N[C@@H](CCC(=O)NCCCC[C@H](NC(=O)[C@H](CO)NC(=O)[C@@H](NC(=O)[C@](C)(Cc1ccccc1)NC(=O)[C@H](CO)NC(=O)CNC(=O)[C@H](CCC(=O)O)NC(=O)C(C)(C)NC(=O)[C@@H](N)Cc1c[nH]cn1)[C@@H](C)O)C(=O)N[C@H](C(=O)N[C@@](C)(CO)C(=O)N[C@@H](CO)C(=O)N[C@@](C)(Cc1ccccc1)C(=O)N[C@@H](CC(C)C)C(=O)N[C@@H](CCC(=O)O)C(=O)NCC(=O)N[C@@H](CCC(=O)O)C(=O)N[C@@H](C)C(=O)N[C@@H](C)C(=O)N[C@@](C)(CCCCN)C(=O)N[C@@H](CCC(=O)O)C(=O)N[C@@](C)(Cc1ccccc1)C(=O)N[C@H](C(=O)N[C@@H](C)C(=O)N[C@@](C)(Cc1ccccc1)C(=O)N[C@H](C(=O)N[C@H](C(=O)N[C@@](C)(CCCCN)C(=O)NCC(=O)NCC(N)=O)C(C)C)C(C)C)[C@@H](C)CC)C(C)C)C(=O)O` [compound 91] (H-H[Aib]EGS[αMeF]TSK([γGlu-Palmitoyl])V[αMeS]S[αMeF]LEGEAA[αMeK]E[αMeF]IA[αMeF]VV[αMeK]GG-NH2), the EC50 in experiment [1] (setting [5]) is ≥ 28 nM; in experiment [1] (setting [6]) it was ≥ 28 nM; in experiment [2] (setting [7]), 2720 pM; in experiment [2] (setting [8]), 1930 pM; in experiment [2] (setting [9]), 3500 pM; in experiment [3] (setting [10]) it was 21 pM. In addition, the EC50 is 27 pM in experiment [3] (setting [11]), 24 pM in experiment [3] (setting [12]), ≥ 28 nM in experiment [4] (setting [13]) and ≥ 28 nM in experiment [4] (setting [14]).
Consider `CC[C@H](C)[C@H](NC(=O)[C@](C)(Cc1ccccc1)NC(=O)[C@H](CCC(=O)O)NC(=O)[C@](C)(CCCCN)NC(=O)[C@H](C)NC(=O)[C@H](C)NC(=O)[C@H](CCC(=O)O)NC(=O)CNC(=O)[C@H](CCC(=O)O)NC(=O)[C@H](CC(C)C)NC(=O)[C@](C)(Cc1ccccc1)NC(=O)[C@H](CO)NC(=O)[C@](C)(CO)NC(=O)[C@@H](NC(=O)[C@H](CC(=O)O)NC(=O)[C@H](CO)NC(=O)[C@@H](NC(=O)[C@](C)(Cc1ccccc1)NC(=O)[C@H](CO)NC(=O)CNC(=O)[C@H](CCC(=O)O)NC(=O)C(C)(C)NC(=O)[C@@H](N)Cc1c[nH]cn1)[C@@H](C)O)C(C)C)C(=O)N[C@@H](C)C(=O)N[C@@](C)(Cc1ccccc1)C(=O)N[C@H](C(=O)N[C@H](C(=O)N[C@@](C)(CCCCN)C(=O)N[C@@H](CCCCNC(=O)COCCOCCNC(=O)COCCOCCNC(=O)CC[C@H](NC(=O)CCCCCCCCCCCCCCCCC(=O)O)C(=O)O)C(=O)NCC(N)=O)C(C)C)C(C)C` [compound 100] (H-H[Aib]EGS[αMeF]TSDV[αMeS]S[αMeF]LEGEAA[αMeK]E[αMeF]IA[αMeF]VV[αMeK]K([AEEA-AEEA-γGlu-C18 diacid])G-NH2), for which the EC50 is ≥ 25 nM in experiment [1] (setting [5]); ≥ 24.9 nM in experiment [1] (setting [6]); 822 pM in experiment [2] (setting [7]); 233 pM in experiment [2] (setting [8]); 1410 pM in experiment [2] (setting [9]); 16 pM in experiment [3] (setting [10]). The EC50 in experiment [4] (setting [13]) is ≥ 25 nM; in experiment [4] (setting [14]) it was ≥ 24.9 nM.
As for `CC[C@H](C)[C@H](NC(=O)[C@](C)(Cc1ccccc1)NC(=O)[C@H](CCC(=O)O)NC(=O)[C@](C)(CCCCN)NC(=O)[C@H](C)NC(=O)[C@H](C)NC(=O)[C@H](CCC(=O)O)NC(=O)CNC(=O)[C@H](CCC(=O)O)NC(=O)[C@H](CC(C)C)NC(=O)[C@](C)(Cc1ccccc1)NC(=O)[C@H](CO)NC(=O)[C@](C)(CO)NC(=O)[C@@H](NC(=O)[C@H](CC(=O)O)NC(=O)[C@H](CO)NC(=O)[C@@H](NC(=O)[C@](C)(Cc1ccccc1)NC(=O)[C@H](CO)NC(=O)CNC(=O)[C@H](CCC(=O)O)NC(=O)C(C)(C)NC(=O)[C@@H](N)Cc1c[nH]cn1)[C@@H](C)O)C(C)C)C(=O)N[C@@H](C)C(=O)N[C@@](C)(Cc1ccccc1)C(=O)N[C@H](C(=O)N[C@H](C(=O)N[C@@H](CCCCNC(=O)COCCOCCNC(=O)COCCOCCNC(=O)CC[C@H](NC(=O)CCCCCCCCCCCCCCCCC(=O)O)C(=O)O)C(=O)NCC(=O)NCC(N)=O)C(C)C)C(C)C` [compound 101], the EC50 in experiment [1] (setting [5]) was ≥ 25 nM; in experiment [1] (setting [6]), ≥ 25.4 nM; in experiment [2] (setting [7]), 4060 pM; in experiment [2] (setting [8]), 1470 pM; in experiment [2] (setting [9]), 6650 pM; in experiment [3] (setting [10]), 58 pM. Further, the EC50 is 51.2 pM in experiment [3] (setting [11]), 55 pM in experiment [3] (setting [12]), ≥ 25 nM in experiment [4] (setting [13]) and ≥ 25.4 nM in experiment [4] (setting [14]).
Regarding `CC[C@H](C)[C@H](NC(=O)[C@](C)(Cc1ccccc1)NC(=O)[C@H](CCC(=O)O)NC(=O)[C@](C)(CCCCN)NC(=O)[C@H](C)NC(=O)[C@H](C)NC(=O)[C@H](CCC(=O)O)NC(=O)CNC(=O)[C@H](CCC(=O)O)NC(=O)[C@H](CC(C)C)NC(=O)[C@](C)(Cc1ccccc1)NC(=O)[C@H](CO)NC(=O)[C@](C)(CO)NC(=O)[C@@H](NC(=O)[C@H](CC(=O)O)NC(=O)[C@H](CO)NC(=O)[C@@H](NC(=O)[C@](C)(Cc1ccccc1)NC(=O)[C@H](CO)NC(=O)CNC(=O)[C@H](CCC(=O)O)NC(=O)C(C)(C)NC(=O)[C@@H](N)Cc1c[nH]cn1)[C@@H](C)O)C(C)C)C(=O)N[C@@H](C)C(=O)N[C@@H](CCCCNC(=O)COCCOCCNC(=O)COCCOCCNC(=O)CC[C@H](NC(=O)CCCCCCCCCCCCCCCCC(=O)O)C(=O)O)C(=O)N[C@H](C(=O)N[C@H](C(=O)N[C@@](C)(CCCCN)C(=O)NCC(=O)NCC(N)=O)C(C)C)C(C)C` [compound 104], the EC50 was ≥ 26 nM in experiment [1] (setting [5]); ≥ 25.6 nM in experiment [1] (setting [6]); 331 pM in experiment [2] (setting [7]); 391 pM in experiment [2] (setting [8]); 270 pM in experiment [2] (setting [9]); 5.9 pM in experiment [3] (setting [10]). The EC50 in experiment [4] (setting [13]) is ≥ 26 nM; in experiment [4] (setting [14]), ≥ 25.6 nM.
`CC[C@H](C)[C@H](NC(=O)[C@H](CCCCNC(=O)COCCOCCNC(=O)COCCOCCNC(=O)CC[C@H](NC(=O)CCCCCCCCCCCCCCCCC(=O)O)C(=O)O)NC(=O)[C@H](CCC(=O)O)NC(=O)[C@](C)(CCCCN)NC(=O)[C@H](C)NC(=O)[C@H](C)NC(=O)[C@H](CCC(=O)O)NC(=O)CNC(=O)[C@H](CCC(=O)O)NC(=O)[C@H](CC(C)C)NC(=O)[C@](C)(Cc1ccccc1)NC(=O)[C@H](CO)NC(=O)[C@](C)(CO)NC(=O)[C@@H](NC(=O)[C@H](CC(=O)O)NC(=O)[C@H](CO)NC(=O)[C@@H](NC(=O)[C@](C)(Cc1ccccc1)NC(=O)[C@H](CO)NC(=O)CNC(=O)[C@H](CCC(=O)O)NC(=O)C(C)(C)NC(=O)[C@@H](N)Cc1c[nH]cn1)[C@@H](C)O)C(C)C)C(=O)N[C@@H](C)C(=O)N[C@@](C)(Cc1ccccc1)C(=O)N[C@H](C(=O)N[C@H](C(=O)N[C@@](C)(CCCCN)C(=O)NCC(=O)NCC(N)=O)C(C)C)C(C)C` [compound 107]: the EC50 was ≥ 26 nM in experiment [1] (setting [5]); ≥ 25.6 nM in experiment [1] (setting [6]); 8460 pM in experiment [2] (setting [7]); 5230 pM in experiment [2] (setting [8]); 11700 pM in experiment [2] (setting [9]); 83 pM in experiment [3] (setting [10]). In addition, the EC50 in experiment [3] (setting [11]) is 70.5 pM; in experiment [3] (setting [12]), 77 pM; in experiment [4] (setting [13]), ≥ 26 nM; in experiment [4] (setting [14]), ≥ 25.6 nM.
